{"source": "paper PMC2766265", "about": "(Tetrahedron, 2008)", "origin": "cited, not measured here", "data": [{"smiles": "C[C@]12C[C@H](c3ccoc3)OC(=O)[C@H]1CC[C@@]13COC(=O)[C@@H]1C=CC[C@H]23", "note": "[Compound 2, salviarin]", "values": [{"measurement": "binding to any of the opioid-receptor subtypes", "setting": "opioid-receptor subtypes", "result": "none of these diterpenes showed significant binding"}]}, {"smiles": "CC(=O)OC1C=CC2C(=O)OCC23CCC2C(=O)OC(c4ccoc4)C(OC(C)=O)C2(C)C13", "note": "(stereo not drawn) [Compound 3, splendidin]", "values": [{"measurement": "binding to any of the opioid-receptor subtypes", "setting": "opioid-receptor subtypes", "result": "none of these diterpenes showed significant binding"}]}, {"smiles": "COC(=O)[C@@H]1C[C@H](OC(C)=O)C(=O)[C@H]2[C@@]1(C)CC[C@H]1C(=O)O[C@H](c3ccoc3)C[C@]21C", "note": "[Compound 1, Salvinorin A]", "values": [{"measurement": "agonist activity at the κ-opioid receptor", "setting": "κ-opioid receptor", "result": "potent and selective agonist"}]}]}
